Test results from the supplement of paper PMC5770543.
± gives the standard deviation.

Assays:
[1] = system: Plasmodium falciparum 3D7; test: EC50 growth inhibition (60 h, SYBR Green); conditions: stage: ring-stage start
[2] = system: Toxoplasma gondii RH tachyzoites; test: % growth inhibition vs DMSO (48 h luciferase); higher = more inhibition; conditions: 10 µM
[3] = biological target: Toxoplasma gondii RH tachyzoites; test: EC50 growth inhibition (48 h luciferase)
[4] = system: Plasmodium falciparum 3D7; test: % inhibition of schizont-to-ring transition vs DMSO; higher = more inhibition
Summary of the method: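 Schizont-to-ring transition inhibition is the formation of new rings relative to vehicle controls. Tightly synchronised P. falciparum schizonts at about 40–42 hours post-invasion (1% parasitemia, 2.5% hematocrit, AlbuMAX-supplemented RPMI) were treated with compound at 1, 3 or 10 µM, alongside vehicle and positive controls. After glutaraldehyde fixation, Triton permeabilisation and Hoechst 33342 staining, at least 100,000 events were counted by flow cytometry, and values are the mean of three experiments.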
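Throughout, for % growth inhibition vs DMSO (48 h luciferase): tested in triplicate wells of 96-well plates on confluent HFF monolayers, with 1% DMSO wells as negative control in four replicates.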

| Compound | EC50 growth inhibition [1] [nM] | % growth inhibition [2] [%] | EC50 growth inhibition [3] [nM] | % inhibition of schizont-to-ring transition ([4]; 1 µM) [%] | % inhibition of schizont-to-ring transition ([4]; 3 µM) [%] | % inhibition of schizont-to-ring transition ([4]; 10 µM) [%] |
| --- | --- | --- | --- | --- | --- | --- |
| CN(C)CCCNCc1ccc(-c2ccc(F)c(Cl)c2)o1 | 601 | 92.8 ± 3.3 | 1660 | 12.5 | 38.8 | 63.5 |
| CCN(CC)c1ccc(NC(=O)c2cccs2)cc1 | 2110 | 91.4 ± 2.7 | 1650 | < 0 | 3.66 | 31.7 |
| COc1ccccc1N1C(=N)SC(=Cc2ccc(OCc3ccccc3F)cc2)C1=O | 4920 | 93.42 ± 0.8 | 978 | 14.8 | 30.1 | 52.5 |
| O=C(Nc1cccc(C(F)(F)F)c1)c1cc(Cl)ccc1O | 3770 | 99.77 ± 0.14 | 9.2 | < 0 | 20.2 | 51.6 |
| COc1ccc(-c2nc(N3CCN(C(=O)C4CCCCC4)CC3)c3c4c(sc3n2)CCCC4)cc1 | 4080 | 86 ± 3.8 | 3080 | 10.6 | 17.7 | 44.9 |
| CSC1=NC(=Nc2c(C)cccc2C)C2(CCC(C(C)(C)C)CC2)N1c1ccc(Cl)cc1 (stereo not drawn) | 869 | 99.94 ± 0.22 | 775 | 12.4 | 26.3 | 49.9 |
| COc1ccc(Nc2nc(NCc3ccccc3)c3ccccc3n2)cc1 | 104 | 100.5 ± 0.45 | 763 | 26.4 | 34.8 | 48 |
| Cc1ccc(Cl)cc1N1CCN(CCCNC(=O)C2CCN(c3nc4ccccc4[nH]3)CC2)CC1 | 920 | 98.63 ± 0.9 | 3240 | 37.8 | 50.8 | 60.5 |
| CCCCNCC(O)(c1ccc(Cl)cc1)c1ccc(Cl)cc1 | 527 | 97.55 ± 0.55 | 6550 | 8.52 | 48.1 | 70.3 |
| CCOC(=O)C1=C(c2ccccc2)N=c2sc(=Cc3cc(C)n(-c4ccc(F)cc4)c3C)c(=O)n2C1c1cccc(OC)c1OC (stereo not drawn) | 493 | 92.3 ± 2 | 1500 | 0.392 | 3.17 | 14.4 |
| COc1cc2c(cc1OC)C1=NNC(=O)C1=NC(C)(C)C2 | 1790 | 80.4 ± 1.2 | 3260 | 14.2 | 25.3 | 63.4 |
| Oc1ccc(Br)cc1CN1CCN(Cc2ccc(Cl)cc2)CC1 | 1090 | 91.5 ± 3.5 | 6610 | 16.2 | 45.5 | 68.8 |
| COCCN(C(=O)Cc1cccs1)C(C(=O)NCc1ccc(OC)cc1)c1ccc(C(C)C)cc1 (stereo not drawn) | 935 | 91.5 ± 3.5 | 2420 | 10.9 | 13.7 | 21.6 |
| CCOC(=O)c1c(C)n(-c2ccccc2)c2ccc(OC(=O)c3cc(OC)c(OC)c(OC)c3)cc12 | 1600 | 96.58 ± 0.65 | 6360 | 11.1 | 16.1 | 27.7 |
| O=C(Nc1ccc(Cl)cc1C(=O)Nc1ccncc1)c1ccc(Cl)cc1Cl | 1280 | 80.8 ± 4.7 | 3950 | 3.75 | 32.4 | 62.5 |
| COc1ccc(-c2nc3cc(Cc4ccc5[nH]c(-c6ccc(OC)cc6)nc5c4)ccc3[nH]2)cc1 | 185 | 100 ± 0.58 | 1470 | 50.4 | 65.3 | 68.3 |
| O=C(Nc1ccccc1O)c1ccc(Oc2cccc(C(=O)Nc3ccccc3O)c2)cc1 | 1840 | 99.35 ± 0.37 | 1670 | 0.57 | 30 | 46.7 |

| Compound | EC50 growth inhibition [1] [nM] | % growth inhibition [2] [%] | EC50 growth inhibition [3] [nM] | % inhibition of schizont-to-ring transition ([4]; 1 µM) [%] | % inhibition of schizont-to-ring transition ([4]; 3 µM) [%] | % inhibition of schizont-to-ring transition ([4]; 10 µM) [%] |
| --- | --- | --- | --- | --- | --- | --- |
| O=C1c2ccccc2C2=Nc3ccccc3SC(c3cccc(F)c3)C12 (stereo not drawn) | 283 | 99.31 ± 0.18 | 916 | 15.1 | 29 | 37.5 |
| Nc1nc(Nc2cccc(F)c2)nc2ccccc12 | 1030 | 100.5 ± 0.22 | 8210 | 15.3 | 31.5 | 62.7 |
| O=C(Nc1ccc(N2CCCCC2)c(Cl)c1)c1ccc(Br)o1 | 812 | 82.4 ± 6.4 | 7400 | 29.7 | 39.7 | 53 |
| Nc1ccc(-c2nc3cc(Oc4ccc(Oc5ccc6[nH]c(-c7ccc(N)cc7)nc6c5)cc4)ccc3[nH]2)cc1 | 253 | 100.27 ± 0.078 | 1610 | 23.6 | 43.2 | 60.7 |
| Cc1ccc(C2CC(C(F)(F)F)n3nc(C(=O)N4CCN(C(c5ccccc5)c5ccccc5)CC4)cc3N2)cc1 (stereo not drawn) | 2040 | 99.677 ± 0.058 | 1660 | < 0 | < 0 | 35.3 |
| N=c1n(CCN2CCCCC2)c2ccccc2n1CC(O)c1cccc(Br)c1 (stereo not drawn) | 624 | 85.2 ± 2.2 | 4580 | < 0 | 35.2 | 64 |
| CCCCCn1c(=N)n(CC(O)COc2cccc(C)c2)c2ccccc21 (stereo not drawn) | 1940 | 99.47 ± 0.32 | 1770 | 8.72 | 13.3 | 61.9 |
| Cc1sc(NC(=O)c2ccco2)c(C(c2cccnc2)N2CCC(Cc3ccccc3)CC2)c1C (stereo not drawn) | 833 | 99.83 ± 0.14 | 1120 | 6.59 | 41.7 | 62.4 |
| O=C(Nc1ccc(F)c(Cl)c1)Nc1ccc(Cl)c(Cl)c1 | 3980 | 100.1 ± 0.21 | 346 | 36.5 | 55.4 | 77.4 |
| FC(F)(F)c1cccc(Nc2nc3ccccc3nc2Nc2cccc(C(F)(F)F)c2)c1 | 6400 | 99.49 ± 0.16 | 46.4 | < 0 | 15.6 | 42.7 |
| COc1cc(C(=O)Nc2ccc(-c3nc4ccccc4[nH]3)cc2)cc(OC)c1OC | 788 | 91.42 ± 0.58 | 4730 | < 0 | 9.26 | 43.1 |
| CCCCCCC(O)(c1ccc(F)cc1)C(CN1CCOCC1)c1ccccc1 (stereo not drawn) | 2160 | 100.1 ± 0.26 | 3570 | 37.5 | 40.1 | 40.3 |
| CCCCCCc1cc(O)c2c3c(c(=O)oc2c1)CCC(C)C3 (stereo not drawn) | 3410 | 99.37 ± 0.72 | 471 | 18.6 | 34.9 | 52.4 |
| c1ccc(CNc2nc(Nc3ccccc3)nc3ccccc23)cc1 | 181 | 99.917 ± 0.022 | 708 | 44.8 | 51.2 | 66.8 |
| COc1cc(-c2nc(-c3ccc(Sc4ccccc4)cc3)c(-c3ccccc3)[nH]2)cc(OC)c1O | 449 | 98.59 ± 0.34 | 1320 | < 0 | < 0 | 45.4 |
| CCCCNc1nc(NC(C)(C)C)nc(NC(C)(C)C)n1 | 2760 | 93.8 ± 2.5 | 603 | 12.2 | 25.9 | 66.4 |
